# According to PubChem BioAssay (NCI):
#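 Following 48 hours of exposure in 96-well plates, responses at five concentrations were used to interpolate endpoints linearly. Abbreviation: GI50, concentration required for 50% inhibition of growth. The concentration for full growth arrest is given as TGI.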 Where a SMILES comes first, the peptide text is derived from it. The star is where a group is joined. Boc = CC(C)(C)OC(=O)*
# Legend:
# Assay in all cases: DTP human tumour cell line panel, 48 h
# [1] = system: MCF7 breast
# [2] = system: MDA-MB-231 breast
# [3] = system: HCT-116 colon
# [4] = system: MOLT-4 leukemia
# [5] = system: HOP-62 NSCLC
# [6] = system: SK-MEL-5 melanoma
Compound,TGI [1] [µM],TGI [2] [µM],TGI [3] [µM],TGI [4] [µM],TGI [5] [µM],TGI [6] [µM],GI50 [1] [µM],GI50 [6] [µM],GI50 [4] [µM],GI50 [5] [µM]
COC(=O)CN=C1NC(=S)N(Cc2ccc(OC)cc2)C12CCCC2,> 100,> 100,> 100,> 100,> 100,,,,,
CCCCCCCCCC(=O)NCCc1c[nH]c2ccc(OC)cc12,33.7,30.9,43.5,> 100,31.1,34.3,,,,
O=C(NNC(=S)Nc1ccc(Cl)cc1)C12CC3CC(CC(C3)C1)C2,> 56.5,19.6,9.26,10.7,29.7,15.5,,,,
O=C1CNc2cc(N3CCOCC3)ccc2N1,,> 100,> 100,> 100,> 100,> 100,,,,
CCN(CC)C(=S)/N=C(\SC(=S)N(CC)CC)c1ccccc1,> 100,> 25.7,20.9,> 74.8,> 83.2,> 100,,,,
COC(O)C(=O)c1c2c(cc3c1CCC3)CCC2 (stereo not drawn),> 100,> 100,> 100,> 100,> 100,> 100,,,,
Fc1ccc(Oc2nc3ccccc3nc2-c2ccccc2)cc1,> 100,> 100,> 100,> 100,> 100,> 100,,,,
CC(C)(C)C(O)CC(O)(C(F)(F)F)C(F)(F)F (stereo not drawn),> 100,> 100,> 100,> 100,> 100,> 100,,,,
Cc1cccc2c(N)c3cccc(C(=O)NCC[N+](C)(C)Cc4ccc(S(C)(=O)=O)cc4)c3nc12,> 100,> 100,> 100,,> 100,> 100,,,,
O=C(c1cc(Cl)cc(Cl)c1)N(Cc1cccnc1)C(=S)N(Cc1cccnc1)C(=O)c1cc(Cl)cc(Cl)c1,> 100,71.5,96.5,> 100,75.1,76,,,,
C[C@@H](Oc1ccc(Oc2cnc3ccc(Cl)cc3n2)cc1)C(=O)O,> 100,> 100,> 100,> 100,> 100,> 100,18.3,> 82.1,> 23.7,> 85.3
O=C(/C=C\c1ccsc1)c1ccccc1,6.72,18.5,14.5,> 100,30.7,27.3,,,,
CCOC(=O)c1cc(C2=CCNC2=O)c(-c2cc(C)no2)[nH]1,> 100,> 100,> 100,> 100,> 100,> 100,,,,
CC(=O)Nc1ncc2c(n1)-c1ccccc1OC2c1ccccc1 (stereo not drawn),> 100,75.3,> 100,> 100,,> 100,,,,
CC1=NNC(=O)C1C1CC(c2c[nH]c3ccccc23)=NN(c2ccccc2)C1=O (stereo not drawn),,> 100,> 100,> 100,> 100,> 100,,,,
CC(NC(=O)C(N)CC(=O)O)C(=O)OC12CC3CC(CC(C3)C1)C2 (stereo not drawn),> 100,> 100,> 100,> 100,,> 100,,,,
Clc1cc2nc(C3CCCCO3)[nH]c2cc1Cl (stereo not drawn),36.5,> 100,> 100,> 100,> 100,> 100,,,,
Cc1ccc(S(=O)(=O)NN=C2C(C)(C)CC2(C)C)cc1,> 100,> 100,> 100,> 100,> 100,> 100,,,,
COc1ccc(C(OC(=O)[C@H](O[Si](C)(C)C(C)(C)C)[C@@H](NC(=O)c2ccccc2)c2ccccc2)c2ccc(OC)cc2)cc1,> 100,> 100,> 100,> 100,> 100,> 100,,,,
CC1(c2nc3ccccc3[nH]2)CCC(C#N)C(C)(C)O1 (stereo not drawn),> 100,> 100,> 100,> 100,> 100,> 100,,,,
COc1ccc2nc3c(C)cc4ccccc4n3c2c1,> 100,,> 100,> 100,> 100,> 100,,,,
CC(=O)c1cc2c(s1)C(=O)c1ccsc1C2=O,1.68,,1.59,2.17,0.916,0.262,,,,
COc1ccc(-c2[nH]c(-c3ccc(OC)cc3)c(-c3ccccn3)c2-c2ccccn2)cc1,> 100,> 100,> 100,> 100,,32.2,,,,
CC1=NN(c2cccc(Cl)c2)C2(C1=Cc1cccs1)C(Cl)C(=O)N2c1nc2ccccc2s1 (stereo not drawn),69.5,41.4,34.1,57.1,> 100,36.2,,,,
CCCC(=O)N(C)N=Nc1ccc(C(=O)OCC)cc1,> 100,> 100,> 100,> 100,> 100,> 100,,,,
CC(NC(=O)C1CCCN1C(=O)CNC(=O)OC(C)(C)C)C(=O)O (stereo not drawn) (Boc-Gly-Pro-Ala-OH; configuration not given here),> 100,> 100,,> 100,> 100,> 100,,,,
CC(O)CC(=O)CO[C@H]1[C@H](O)[C@@H](O)[C@@H](O)[C@@H]2NC(=O)c3c(cc4c(c3O)OCO4)[C@H]21 (stereo partly drawn),0.461,0.545,0.345,0.321,0.319,0.0623,,,,
CCOC(=O)NC(Nc1ccc(S(=O)(=O)Nc2ccc(OC)nn2)cc1)(C(F)(F)F)C(F)(F)F,> 100,38.1,44.5,49.5,59.6,32,,,,
Cc1occc1C(=S)Nc1ccc(Cl)c(C(=O)OCC(C)C)c1,33.3,31.4,28.8,44.8,,29,,,,
Cc1nn(C(=O)c2ccc(Cl)cc2)c2c1C(c1ccccc1O)SC(N)=N2 (stereo not drawn),> 10,> 10,> 10,> 10,> 10,> 10,,,,
